From publication PMC9206137, “Synergistic anti-SARS-CoV-2 activity of repurposed anti-parasitic drug combinations” (BMC Pharmacology & Toxicology, 2022)
“And” between values parts separate entries of the source, which are not always exact repeats. Equal values may be shown once. Read-outs that look alike come from different tables or passages of the source.

Columns and labels:
SARS-CoV-2 [1] = experiment: Antiviral activity against SARS-CoV-2 in Vero E6 cells, one-step qRT-PCR (single drugs, two-drug combinations, synergy analysis); conditions: for %inhibition (qRT-PCR) / % inhibition: replicates; for % inhibition: Vero E6 cells
[2] = test system: plasma nonstructural protein 1; conditions: dengue patients; cited from earlier work
[3] = calculated based on lung: plasma ratio in cattle; cited from earlier work
[4] = humans; oral 200 μg/kg; mean ± SD; cited from earlier work
dengue virus = conditions: read-out: IC50 against dengue virus, cited from earlier work
SARS-CoV-2 [5] = conditions: cited from earlier work
Vero E6 cells = experiment: Cell viability assay (MTT) in Vero E6 cells; conditions: for %cell viability / cell viability: replicates; for cell viability: Vero E6 cells
Procedure: (§1) Subsequently, the cell viability was assessed using MTT dyes (Invitrogen) in duplicate (Supplementary file 1). The procedure was described elsewhere. The viability of drug-treated cells was expressed as percent cell viability relative to 0.5% DMSO-treated cells.

SARS-CoV-2 [6] = experiment: microbe, parasite or virus in culture; type: cell-based; conditions: for %inhibition (plaque assay) / % inhibition: replicates; for % inhibition: Calu-3 cells
Calu-3 cells = experiment: Cell viability assay (MTT) in Calu-3 cells; conditions: for %cell viability / cell viability: replicates; for cell viability: Calu-3 cells
Procedure: as §1

SARS-CoV-2 [7] = experiment: Antiviral activity against SARS-CoV-2 in Vero E6 cells, plaque assay; type: cell-based; conditions: Vero E6; for %inhibition (plaque assay): replicates

## ivermectin
SARS-CoV-2 [1]; Vero E6, ivermectin 0.15625 uM
  %inhibition (qRT-PCR): 20.77% and 18.77% and 17.59%
SARS-CoV-2 [1]; Vero E6, ivermectin 0.3125 uM
  %inhibition (qRT-PCR): 22.09% and 7.36% and 10.53%
SARS-CoV-2 [1]; Vero E6, ivermectin 0.625 uM
  %inhibition (qRT-PCR): 17.18% and 18.46% and 16.20%
SARS-CoV-2 [1]; Vero E6, ivermectin 1.25 uM
  %inhibition (qRT-PCR): 48.83% and 48.22% and 45.15%
SARS-CoV-2 [1]; Vero E6, ivermectin 2.5 uM
  %inhibition (qRT-PCR): 68.53% and 77.48% and 81.10%
SARS-CoV-2 [1]; Vero E6, ivermectin 5 uM
  %inhibition (qRT-PCR): 80.18% and 78.28% and 78.87%
SARS-CoV-2 [1]; Ivermectin 0.3 uM alone
  % inhibition: 24.74% and 21.54% and 19.89%
SARS-CoV-2 [1]; Ivermectin 0.6 uM alone
  % inhibition: 40.13% and 29.29% and 31.22%
SARS-CoV-2 [1]; Ivermectin 1.2 uM alone
  % inhibition: 46.41% and 46.78% and 47.88%
SARS-CoV-2 [1]; Ivermectin 2.4 uM alone
  % inhibition: 68.57% and 80.79% and 75.01%
SARS-CoV-2 [1]; read-out: IC50 (μM) qRT-PCR, Vero E6, MOI 0.01, 48 hours, single drug
  IC50: 1.27 µM
[2]
  level of plasma nonstructural protein 1: reduce
[3]
  predicted maximum lung concentration: 0.0873 µM
[4]
  maximum plasma concentration: 0.049 ± 0.02 µM
Dengue virus; Huh-7 cells
  IC50: ~4.64 µM
Dengue virus; immortalized hepatocyte-like cell line
  IC50: ~5.33 µM
SARS-CoV-2 [5]
  reduction in SARS-CoV-2 replication in vitro: up to 5000 fold
Vero E6 cells; Vero E6, MTT, 48 hours
  CC50: 10.6 µM
Vero E6 cells; Vero E6, ivermectin 0.15625 uM
  %cell viability: 102.24%
Vero E6 cells; Vero E6, ivermectin 0.3125 uM
  %cell viability: 100.47% and 100.17%
Vero E6 cells; Vero E6, ivermectin 0.625 uM
  %cell viability: 102.19%
Vero E6 cells; Vero E6, ivermectin 1.25 uM
  %cell viability: 100.11% and 101.75%
Vero E6 cells; Vero E6, ivermectin 2.5 uM
  %cell viability: 99.32%
Vero E6 cells; Vero E6, ivermectin 5 uM
  %cell viability: 83.87% and 88.89%
Vero E6 cells; Vero E6, ivermectin 10 uM
  %cell viability: 55.14% and 53.62% and 46.86%
Vero E6 cells; Vero E6, ivermectin 20 uM
  %cell viability: 21.86% and 15.62% and 14.14%
Vero E6 cells; Vero E6, ivermectin 40 uM
  %cell viability: 12.31% and 10.14% and 11.10%
Vero E6 cells; Ivermectin 0.3 uM alone
  cell viability: 100.47 and 100.17
Vero E6 cells; Ivermectin 0.6 uM alone
  cell viability: 102.19
Vero E6 cells; Ivermectin 1.2 uM alone
  cell viability: 100.11 and 101.75
Vero E6 cells; Ivermectin 2.4 uM alone
  cell viability: 99.32
SARS-CoV-2 [6]; Calu-3, 500 TCID50, plaque assay, single drug
  IC50: 0.2 µM
SARS-CoV-2 [6]; Calu-3, ivermectin 0.048828 uM
  %inhibition (plaque assay): 7.34% and 7.50% and 6.92%
SARS-CoV-2 [6]; Calu-3, ivermectin 0.195313 uM
  %inhibition (plaque assay): 43.75% and 44.69% and 42.02%
SARS-CoV-2 [6]; Calu-3, ivermectin 0.390625 uM
  %inhibition (plaque assay): 55.86% and 56.30% and 55.45%
SARS-CoV-2 [6]; Calu-3, ivermectin 0.78125 uM
  %inhibition (plaque assay): 63.14% and 86.03% and 74.50%
SARS-CoV-2 [6]; Calu-3, ivermectin 1.5625 uM
  %inhibition (plaque assay): 90.72% and 80.25% and 82.92%
SARS-CoV-2 [6]; Calu-3, ivermectin 3.125 uM
  %inhibition (plaque assay): 98.34% and 97.94% and 90.53%
SARS-CoV-2 [6]; Ivermectin 0.05 uM alone
  % inhibition: 26.67% (2×) and 33.33%
SARS-CoV-2 [6]; Ivermectin 0.10 uM alone
  % inhibition: 33.33% and 26.67% and 40.00%
SARS-CoV-2 [6]; Ivermectin 0.20 uM alone
  % inhibition: 40.00% and 66.67% and 53.33%
SARS-CoV-2 [6]; Ivermectin 0.40 uM alone
  % inhibition: 53.33% and 73.33% and 66.67%
Calu-3 cells; Calu-3, MTT, 48 hours
  CC50: 3.1 µM
Calu-3 cells; Calu-3, ivermectin 0.048828 uM
  %cell viability: 101.77% and 102.10%
Calu-3 cells; Calu-3, ivermectin 0.195313 uM
  %cell viability: 103.33%
Calu-3 cells; Calu-3, ivermectin 0.390625 uM
  %cell viability: 106.67% and 102.92%
Calu-3 cells; Calu-3, ivermectin 0.78125 uM
  %cell viability: 103.89%
Calu-3 cells; Calu-3, ivermectin 1.5625 uM
  %cell viability: 100.11% and 106.94%
Calu-3 cells; Calu-3, ivermectin 3.125 uM
  %cell viability: 41.94% and 53.47%
Calu-3 cells; Calu-3, ivermectin 6.25 uM
  %cell viability: 6.67%
Calu-3 cells; Calu-3, ivermectin 12.5 uM
  %cell viability: 6.53% and 6.39%
Calu-3 cells; Ivermectin 0.05 uM alone
  cell viability: 100.07 and 99.88
Calu-3 cells; Ivermectin 0.10 uM alone
  cell viability: 99.91 and 100.11
Calu-3 cells; Ivermectin 0.20 uM alone
  cell viability: 101.94 and 95.31
Calu-3 cells; Ivermectin 0.40 uM alone
  cell viability: 94.38 and 100.45
SARS-CoV-2 [7]; MOI 0.01, 48 hours, single drug
  IC50: 1.23 µM
SARS-CoV-2 [7]; ivermectin 0.15625 uM
  %inhibition (plaque assay): 7.34% and 7.50% and 7.15%
SARS-CoV-2 [7]; ivermectin 0.3125 uM
  %inhibition (plaque assay): 29.78% and 21.00% and 25.31%
SARS-CoV-2 [7]; ivermectin 0.625 uM
  %inhibition (plaque assay): 30.26% (2×) and 32.64%
SARS-CoV-2 [7]; ivermectin 1.25 uM
  %inhibition (plaque assay): 52.64% and 56.27% and 48.59%
SARS-CoV-2 [7]; ivermectin 2.5 uM
  %inhibition (plaque assay): 63.02% and 62.70% and 66.77%
SARS-CoV-2 [7]; ivermectin 5 uM
  %inhibition (plaque assay): 78.39% and 83.51% and 83.02%
